{"source": "paper PMC3548977", "about": "(Cancer cell, 2013)", "key": {"P-glycoprotein (PGP)": {"tested_on": "P-glycoprotein (PGP)", "conditions": "ref Wang et al., 2002; cited from earlier work"}, "[1]": {"tested_on": "Ptch^+/−; p53^−/− mouse MB allograft (SMO^WT)", "format": "in vivo", "conditions": "day 9 of treatment; ATO 7.5 mg/kg IP qd, itraconazole 75 mg/kg PO bid"}, "Gli1 mRNA [2]": {"tested_on": "Gli1 mRNA", "assay": "Gli1 mRNA expression in treated SMO^WT MB allografts", "format": "in vivo, mouse", "conditions": "treated 3 days, harvested 4 h after last dose"}, "[3]": {"tested_on": "NVP-LDE225 resistant SMO mutants", "format": "cell-based, mouse", "conditions": "itraconazole 1.5 μM, mutant of Figure 7D"}, "Gli1 mRNA [4]": {"tested_on": "Gli1 mRNA", "assay": "Gli1 mRNA transcription in MB tumorspheres", "format": "cell-based", "conditions": "Mus musculus, 24 h, read-out: IC50 for Gli1 mRNA transcription"}, "SMO^WT": {"target": "SMO^WT (Mus musculus, UniProt P56726)", "sequence (P56726 33-793)": "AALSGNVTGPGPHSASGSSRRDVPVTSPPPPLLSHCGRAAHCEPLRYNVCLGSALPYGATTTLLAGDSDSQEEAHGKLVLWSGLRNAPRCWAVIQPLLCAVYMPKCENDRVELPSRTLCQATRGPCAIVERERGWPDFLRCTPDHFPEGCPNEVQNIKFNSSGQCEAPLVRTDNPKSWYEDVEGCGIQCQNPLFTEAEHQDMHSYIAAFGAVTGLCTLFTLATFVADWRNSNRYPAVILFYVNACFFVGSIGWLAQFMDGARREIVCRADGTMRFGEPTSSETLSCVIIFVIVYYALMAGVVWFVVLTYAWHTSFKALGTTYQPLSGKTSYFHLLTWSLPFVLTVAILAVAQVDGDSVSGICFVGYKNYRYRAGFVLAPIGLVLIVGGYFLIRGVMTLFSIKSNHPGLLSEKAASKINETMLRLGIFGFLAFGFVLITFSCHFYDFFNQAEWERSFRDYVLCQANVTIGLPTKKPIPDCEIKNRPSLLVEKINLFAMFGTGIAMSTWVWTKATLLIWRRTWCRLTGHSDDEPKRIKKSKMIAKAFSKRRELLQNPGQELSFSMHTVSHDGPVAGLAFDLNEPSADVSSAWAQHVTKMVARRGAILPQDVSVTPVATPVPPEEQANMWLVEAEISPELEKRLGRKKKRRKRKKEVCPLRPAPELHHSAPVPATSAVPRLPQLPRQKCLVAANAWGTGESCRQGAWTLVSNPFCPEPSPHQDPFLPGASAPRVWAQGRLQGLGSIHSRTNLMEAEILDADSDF", "assay": "8×-GLI-luciferase reporter in SHHN stimulated Smo−/− MEFs expressing SMO^WT", "format": "cell-based"}, "murine SMO^E522K": {"target": "murine SMO^E522K (Mus musculus, UniProt P56726, E522K)", "sequence (P56726 33-793 E522K)": "as the sequence (P56726 33-793) above, with E490K counted along it", "assay": "8×-GLI-luciferase reporter in SHHN stimulated Smo−/− MEFs expressing SMO^E522K", "conditions": "GDC-0449 0.5 μM, itraconazole 1.5 μM"}, "[5]": {"tested_on": "Ptch^+/−; p53^−/− MB tumorspheres expressing endogenous SMO^WT", "assay": "MB tumorsphere proliferation", "format": "cell-based", "conditions": "Mus musculus, 96 h, read-out: IC50 anti-proliferative activity"}}}
{"molecule": "CCC(C)n1ncn(-c2ccc(N3CCN(c4ccc(OCC5COC(Cn6cncn6)(c6ccc(Cl)cc6Cl)O5)cc4)CC3)cc2)c1=O", "note": "(stereo not drawn) [itraconazole]", "values": [{"measurement": "Inhibition of PGP", "setting": "P-glycoprotein (PGP)", "result": "potent inhibitor"}, {"measurement": "Tumor growth inhibition compared to vehicle-treated tumors", "setting": "[1]", "result": 96, "unit": "%"}, {"measurement": "Inhibition of tumor Gli1 mRNA expression compared to vehicle-treated tumors", "setting": "Gli1 mRNA [2]", "result": 55, "unit": "%"}, {"measurement": "Inhibition of mutant activity", "setting": "[3]", "result": "~ 60%"}, {"measurement": "IC50", "setting": "Gli1 mRNA [4]", "result": "~100", "unit": "nM"}, {"measurement": "IC50", "setting": "SMO^WT", "result": "~600", "unit": "nM"}, {"measurement": "Inhibition of relative Hh pathway activity (8×-GLI-luciferase reporter)", "setting": "SMO^WT; SHHN stimulated Smo−/− MEFs expressing SMO^WT", "result": "full antagonist"}, {"measurement": "Inhibition of SMO^E522K activity", "setting": "murine SMO^E522K", "result": "almost completely inhibited"}, {"measurement": "IC50", "setting": "[5]", "result": 55, "unit": "nM"}]}
